From publication PMC5116089, “Sulfheme formation during homocysteine S-oxygenation by catalase in cancers and neurodegenerative diseases” (Nature Communications, 2016)
Like-named read-outs stand apart in the source and are kept apart here.

Test system: Hek 293T cells
Test: H2O2 consumption in cell lysates as a function of NaSH concentration
Type: biochemical
Settings: read-out: relative IC50 (rate of H2O2 consumption)
Experimental: CAT activity was measured on an Uvikon 941 spectrophotometer equipped with a temperature controlled water bath (±1 °C) by following the disappearance of H2O2 at 240 nm over 30–120 s at 25 °C. Catalase activity was calculated based on the rate of decomposition of hydrogen peroxide, which is proportional to the reduction of the absorbance at 240 nm. Experiments were carried out in a 3 ml quartz cuvette containing 11.7 mM H2O2 in 50 mM KPi, pH 7.4±1 mM DTPA and the reaction was initiated by adding 0.3–0.6 pmoles of CAT. The effect of biological thiols on the activity of CAT under physiological conditions was determined from a solution of CAT (30–60 nM) preincubated at 25 °C for at least 120 min as a function thiol concentration (0–40 mM for HCys and Cys, 0–100 mM for GSH) in 50 mM KPi, pH 7.4, 1 mM DTPA. Control experiments (biological thiols alone) were also performed in parallel. […] Similarly, the effect of biological thiols on the activity of CAT under pathological conditions was determined from a solution of CAT (30–60 nM) containing a 2.124±0.386 molar excess of iron that was preincubated with various concentrations of thiols (0–1 mM) for at least 120 min at 25 °C in 50 mM KP at pH 7.4. […] The effect of NaSH on the consumption of H2O2 in cell lysates was determined from a solution of cell lysates (0.5–3 mg ml^−1) incubated on ice with various concentrations of NaSH (0–200 μM). […]

[Na+].[SH-] [NaSH]
IC50 (Hek 293T cells transfected with Htt): 4 ± 1.5 µM
IC50 (Hek 293T cells transfected with pcDNA): 6.5 ± 3.6 µM
